According to ChEMBL document CHEMBL1201862, “PubChem BioAssay data set” (2004):
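48-hour exposure; five concentrations; linearly interpolated endpoints. Here, GI50 denotes the concentration required for 50% inhibition of growth.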 Activity calls are given as the source filed them. Cut-off read from the data, not from the text of the source: active = GI50 up to about 1.1 µM and inactive = higher.

Key:
Experiment in all cases: NCI-60 cell line screen, 48 h
786-0 = tested on: 786-0
A498 = tested on: A498
A549 = tested on: A549
ACHN = tested on: ACHN
CCRF-CEM = tested on: CCRF-CEM
HOP-92 = tested on: HOP-92
KM12 = tested on: KM12
MDA-N = tested on: MDA-N
NCI-H226 = tested on: NCI-H226
NCI/ADR-RES = tested on: NCI/ADR-RES
OVCAR-3 = tested on: OVCAR-3
OVCAR-4 = tested on: OVCAR-4
SNB-75 = tested on: SNB-75
SR = tested on: SR
TK-10 = tested on: TK-10
UACC-257 = tested on: UACC-257
UACC-62 = tested on: UACC-62
MCF7 = tested on: MCF7
BT-549 = tested on: BT-549

O=c1[nH]n(Cc2ccccc2Cl)c2ccccc12
GI50 (786-0): > 100 µM (inactive) | GI50 (A498): > 100 µM (inactive) | GI50 (A549): > 100 µM (inactive) | GI50 (ACHN): > 100 µM (inactive) | GI50 (CCRF-CEM): > 100 µM (inactive) | GI50 (HOP-92): 62.4 µM (inactive) | GI50 (KM12): > 100 µM (inactive) | GI50 (MDA-N): > 100 µM (inactive) | GI50 (NCI-H226): > 100 µM (inactive) | GI50 (NCI/ADR-RES): > 100 µM (inactive) | GI50 (OVCAR-3): 73.1 µM (inactive) | GI50 (OVCAR-4): > 100 µM (inactive) | GI50 (SNB-75): 45.5 µM (inactive) | GI50 (SR): > 100 µM (inactive) | GI50 (TK-10): > 100 µM (inactive) | GI50 (UACC-257): 38.9 µM (inactive) | GI50 (UACC-62): > 100 µM (inactive)

CN(C)CC(NC(NCS)C(=O)NCCNc1ccc(NCCNC(=O)C(NCS)NC(CN(C)C)OCCl)c2c1C(=O)c1c(O)ccc(O)c1C2=O)OCCl (centres undefined)
GI50 (786-0): 0.0552 µM (active) | GI50 (A498): 0.0635 µM (active) | GI50 (A549): < 0.001 µM (active) | GI50 (ACHN): < 0.001 µM (active) | GI50 (KM12): 0.172 µM (active) | GI50 (MCF7): 0.01 µM (active) | GI50 (MDA-N): 0.267 µM (active) | GI50 (NCI-H226): 0.0585 µM (active) | GI50 (NCI/ADR-RES): 1.58 µM (inactive) | GI50 (OVCAR-3): 0.387 µM (active) | GI50 (OVCAR-4): 0.502 µM (active) | GI50 (SNB-75): 0.0318 µM (active) | GI50 (TK-10): 0.619 µM (active) | GI50 (UACC-257): 0.929 µM (active) | GI50 (UACC-62): 0.0301 µM (active)

CC(=O)N(CN1C(=O)CCC1C(=O)O)c1ccc(C)cc1 (centres undefined)
GI50 (786-0): > 100 µM (inactive) | GI50 (A498): > 100 µM (inactive) | GI50 (A549): > 100 µM (inactive) | GI50 (ACHN): > 100 µM (inactive) | GI50 (CCRF-CEM): > 100 µM (inactive) | GI50 (HOP-92): > 100 µM (inactive) | GI50 (KM12): > 100 µM (inactive) | GI50 (MCF7): > 100 µM (inactive) | GI50 (MDA-N): > 100 µM (inactive) | GI50 (NCI-H226): > 100 µM (inactive) | GI50 (NCI/ADR-RES): > 100 µM (inactive) | GI50 (OVCAR-3): > 100 µM (inactive) | GI50 (OVCAR-4): > 100 µM (inactive) | GI50 (SNB-75): > 100 µM (inactive) | GI50 (TK-10): > 100 µM (inactive) | GI50 (UACC-257): > 100 µM (inactive) | GI50 (UACC-62): > 100 µM (inactive)

C=C(C)CC1(O[Si](C)(C)C)C(=O)C(OCC)=C1OCC (centres undefined)
GI50 (786-0): > 100 µM (inactive) | GI50 (A498): > 100 µM (inactive) | GI50 (A549): > 100 µM (inactive) | GI50 (ACHN): > 100 µM (inactive) | GI50 (BT-549): > 100 µM (inactive) | GI50 (CCRF-CEM): > 100 µM (inactive) | GI50 (HOP-92): > 100 µM (inactive) | GI50 (KM12): > 100 µM (inactive) | GI50 (MCF7): > 100 µM (inactive) | GI50 (NCI-H226): > 100 µM (inactive) | GI50 (NCI/ADR-RES): > 100 µM (inactive) | GI50 (OVCAR-3): > 100 µM (inactive) | GI50 (OVCAR-4): > 100 µM (inactive) | GI50 (SNB-75): > 100 µM (inactive) | GI50 (TK-10): > 100 µM (inactive) | GI50 (UACC-257): > 100 µM (inactive) | GI50 (UACC-62): > 100 µM (inactive)

CN(C)N1C(=O)SCC(c2ccccc2)(c2ccccc2)C1=O
GI50 (786-0): > 100 µM (inactive) | GI50 (A498): > 100 µM (inactive) | GI50 (A549): 68.2 µM (inactive) | GI50 (ACHN): > 100 µM (inactive) | GI50 (CCRF-CEM): > 100 µM (inactive) | GI50 (HOP-92): > 100 µM (inactive) | GI50 (KM12): > 100 µM (inactive) | GI50 (MCF7): 54.8 µM (inactive) | GI50 (MDA-N): > 100 µM (inactive) | GI50 (NCI-H226): > 100 µM (inactive) | GI50 (NCI/ADR-RES): > 100 µM (inactive) | GI50 (OVCAR-3): > 100 µM (inactive) | GI50 (SNB-75): 60.1 µM (inactive) | GI50 (SR): > 100 µM (inactive) | GI50 (TK-10): > 100 µM (inactive) | GI50 (UACC-257): > 100 µM (inactive) | GI50 (UACC-62): 56.8 µM (inactive)

NC(=O)c1ncn(C2CCC(CP(=O)(O)O)C2)c1N (centres undefined)
GI50 (786-0): > 100 µM (inactive) | GI50 (A549): > 100 µM (inactive) | GI50 (ACHN): > 100 µM (inactive) | GI50 (HOP-92): > 100 µM (inactive) | GI50 (KM12): > 100 µM (inactive) | GI50 (MCF7): > 100 µM (inactive) | GI50 (MDA-N): > 100 µM (inactive) | GI50 (NCI-H226): > 100 µM (inactive) | GI50 (NCI/ADR-RES): > 100 µM (inactive) | GI50 (OVCAR-3): > 100 µM (inactive) | GI50 (OVCAR-4): > 100 µM (inactive) | GI50 (SNB-75): > 100 µM (inactive) | GI50 (SR): > 100 µM (inactive) | GI50 (TK-10): > 100 µM (inactive) | GI50 (UACC-257): > 100 µM (inactive) | GI50 (UACC-62): > 100 µM (inactive)

COC(=O)c1cc(O)ccc1O [METHYL 2,5-DIHYDROXYBENZOATE]
GI50 (786-0): > 100 µM (inactive) | GI50 (A549): > 100 µM (inactive) | GI50 (ACHN): > 100 µM (inactive) | GI50 (CCRF-CEM): > 100 µM (inactive) | GI50 (HOP-92): > 100 µM (inactive) | GI50 (KM12): > 100 µM (inactive) | GI50 (NCI-H226): > 100 µM (inactive) | GI50 (OVCAR-3): > 100 µM (inactive) | GI50 (OVCAR-4): > 100 µM (inactive) | GI50 (SNB-75): > 100 µM (inactive) | GI50 (TK-10): > 100 µM (inactive) | GI50 (UACC-257): > 100 µM (inactive) | GI50 (UACC-62): > 100 µM (inactive)

CC1C(OC2O[C@@H]3O[C@@]4(C)CC[C@H]5[C@H](C)CC[C@@H](C2C)[C@@]35O4)O[C@@H]2O[C@@]3(C)CC[C@H]4[C@H](C)CC[C@@H]1[C@@]24O3 (some centres undefined)
GI50 (786-0): > 50 µM (inactive) | GI50 (A498): > 50 µM (inactive) | GI50 (A549): > 50 µM (inactive) | GI50 (ACHN): 1.65 µM (inactive) | GI50 (BT-549): > 50 µM (inactive) | GI50 (CCRF-CEM): > 50 µM (inactive) | GI50 (KM12): > 50 µM (inactive) | GI50 (MCF7): > 50 µM (inactive) | GI50 (MDA-N): > 50 µM (inactive) | GI50 (NCI-H226): > 50 µM (inactive) | GI50 (OVCAR-3): > 50 µM (inactive) | GI50 (OVCAR-4): > 50 µM (inactive) | GI50 (SNB-75): > 50 µM (inactive) | GI50 (SR): > 50 µM (inactive) | GI50 (TK-10): > 50 µM (inactive) | GI50 (UACC-257): > 50 µM (inactive) | GI50 (UACC-62): > 50 µM (inactive)
